Reference: patent US9370589B2, “Switching fluorescent nanoparticle probe and fluorescent particle imaging method using same” (SHIMADZU CORPORATION, priority 2010, dated 2016)

Tests used:
[1] = Fluorescence intensity before and after change in external environment (addition of 5 wt % SDS); conditions: lactosome containing 20 mol % of dye (IC7-2: 15 mol %); for Ratio of fluorescence intensity (A/B): 5 wt % SDS versus PBS; for Fluorescence maximum: addition of 5 wt % SDS, polymer 1/15 mg/mL; for Fluorescence intensity (A): after addition of 5 wt % SDS; for Fluorescence intensity (PBS)(B): in PBS, at the SDS fluorescence maximum wavelength
Description: (§1) Requirements for recovery of fluorescence intensity under in vivo conditions were studied.
(§2) It is to be noted that specific composition of the phosphate buffered saline (PBS) is as follows: 29 g of Na2HPO4.12H2O, 2.96 g of NaH2PO4.2H2O, and 8.7 g of NaCl per 1 liter of ultrapure water.

[2] = Absorption and fluorescence spectra of fluorescent dye-encapsulating lactosomes in ultrapure water; type: physicochemical; conditions: polymer 1 mg/mL; for absorption maximum / Fluorescence maximum: lactosome encapsulating 1 mol % of dye
Description: Among the lactosomes encapsulating the fluorescent dye IC7-1 (IC7-1/Lactosomes) obtained in Example 1-1, the freeze-dried products of the lactosomes each encapsulating 1 mol %, 5 mol %, 10 mol % and 20 mol % of the fluorescent dye were subjected to measurement of absorption spectra and fluorescence spectra in the following manner.
The measurement of absorption spectra was performed to confirm that each of these lactosomes encapsulated the fluorescent dye according to their respective fluorescent dye blend ratios. Further, the measurement of fluorescence intensity of the fluorescent dye-encapsulating lactosomes was performed. The measurement of absorption spectra was performed using an ultraviolet-visible spectrophotometer (UVmini-1240, manufactured by SHIMADZU CORPORATION). The measurement of fluorescence spectra was performed at an excitation wavelength of 785 nm in the range of 700 to 900 nm using a fluorescence spectrophotometer (RF-5300PC, manufactured by SHIMADZU CORPORATION).
Each of the fluorescent dye-encapsulating lactosomes was dispersed in ultrapure water so that the concentration of the amphiphilic polymer was 1 mg/mL to measure absorption and fluorescence spectra (FIG. 1). The lactosome encapsulating 1 mol % of IC7-1 had adsorption maximum at 831 nm and fluorescence maximum at 836 nm. Although the intensity of absorbance increased as the fluorescent dye content increased, the intensity of fluorescence was highest when the fluorescent dye content was 1 mol %, and was reduced to about 1/120 when the fluorescent dye content was 20 mol % as compared to when the fluorescent dye content was 1 mol % (FIGS. 1(a) and 1(b)). The lactosome encapsulating 1 mol % of IC7-2 had absorption maximum at 831 nm and fluorescence maximum at 833 nm. […] Also when IC7-2 was contained, quenching of fluorescence was observed. The intensity of fluorescence was reduced to about ⅛ when the IC7-2 content was 20 mol % as compared to when the IC7-2 content was 1 mol % (FIGS. 1(c) and 1(d)).
Among the lactosomes encapsulating the fluorescent dye IC7-1 (IC7-1/Lactosomes) obtained in Example 1-1, the lactosomes each encapsulating 0.5 mol % (for comparison), 1 mol %, 2 mol %, 4 mol %, 8 mol %. 12 mol %, 16 mol %, or 20 mol % of the fluorescent dye IC7-1 (IC7-1/Lactosomes) were dispersed in ultrapure water so that the concentration of the amphiphilic polymer was 1 mg/mL to measure the maximum value of fluorescence at an excitation wavelength of 785 nm (FIG. 2(a)).

albumin (BSA) = albumin (BSA) (Bos taurus, UniProt P02769); experiment: Fluorescence intensity before and after change in external environment (addition of 5 wt % BSA); conditions: lactosome containing 20 mol % of dye (IC7-2: 15 mol %); for Ratio of fluorescence intensity (A/B): 5 wt % BSA versus PBS; for Fluorescence maximum: addition of 5 wt % BSA, polymer 1/15 mg/mL; for Fluorescence intensity (A): after addition of 5 wt % BSA; for Fluorescence intensity (PBS)(B): in PBS, at the BSA fluorescence maximum wavelength
albumin (BSA), sequence (P02769 25-607): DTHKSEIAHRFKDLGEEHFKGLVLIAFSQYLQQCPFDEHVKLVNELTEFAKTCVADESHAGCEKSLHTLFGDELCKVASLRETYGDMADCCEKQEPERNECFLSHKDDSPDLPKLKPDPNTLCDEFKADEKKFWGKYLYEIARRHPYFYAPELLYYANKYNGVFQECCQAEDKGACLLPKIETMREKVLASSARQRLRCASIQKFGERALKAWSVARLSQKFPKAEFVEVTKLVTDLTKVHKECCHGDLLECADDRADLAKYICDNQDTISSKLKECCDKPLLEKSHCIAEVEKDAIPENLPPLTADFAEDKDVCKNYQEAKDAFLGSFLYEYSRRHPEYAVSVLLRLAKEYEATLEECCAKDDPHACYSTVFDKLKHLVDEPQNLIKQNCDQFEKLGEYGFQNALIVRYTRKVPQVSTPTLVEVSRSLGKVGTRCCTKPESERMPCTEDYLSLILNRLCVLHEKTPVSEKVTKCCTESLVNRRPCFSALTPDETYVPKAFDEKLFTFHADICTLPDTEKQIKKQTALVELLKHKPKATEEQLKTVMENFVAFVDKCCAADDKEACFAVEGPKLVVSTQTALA
Description: as §1, §2

[3] = Fluorescence intensity before and after change in external environment (addition of plasma); conditions: for Fluorescence maximum: lactosome (PSar-PLLA) containing 20 mol % of dye (IC7-2: 15 mol %), addition of plasma, polymer 1/15 mg/mL; for Fluorescence intensity (A) / Fluorescence intensity (PBS)(B) / Ratio of fluorescence intensity (A/B): lactosome containing 20 mol % of dye (IC7-2: 15 mol %); for Fluorescence intensity (A): after addition of plasma; for Fluorescence intensity (PBS)(B): in PBS, at the plasma fluorescence maximum wavelength; for Ratio of fluorescence intensity (A/B): plasma versus PBS
Description: Requirements for recovery of fluorescence intensity under in vivo conditions were studied. A water dispersion of the lactosome encapsulating 20 mol % of IC7-1 in a carrier agent PSar-PLLA (1 mg/mL) and phosphate buffered saline (PBS), plasma (collected from a male ddY), 5 wt % albumin (BSA), or 5 wt % SDS were mixed 1:1 (volume ratio), respectively, and the mixture was allowed to stand at room temperature for 30 minutes under lightproof conditions, and then diluted with PBS so that the concentration of the amphiphilic polymer was 1/15 mg/mL to measure a fluorescence spectrum (FIG. 3(a)).

[4] = Dependence of fluorescence intensity of fluorescent dye-encapsulating lactosome on fluorescent dye content; type: physicochemical; conditions: for intensity of fluorescence by adding SDS, BSA, or plasma: lactosome with varied dye content; for fluorescent dye content at which the intensity of fluorescence in PBS was maximized: polymer 1/15 mg/mL
Description: Lactosomes encapsulating, as a fluorescent dye, IC7-1, IC7-2, IR820, IR783, or IR806 were prepared by changing the fluorescent dye content (1 mg/mL), and were then mixed with PBS, 5 wt % SDS, 5 wt % BSA, or plasma 1:1 (volume ratio), and the mixture was allowed to stand at room temperature for 30 minutes under lightproof conditions, and then diluted with PBS so that the concentration of the amphiphilic polymer was 1/15 mg/mL to measure the intensity of fluorescence using Fluorolog-3 (HORIBA Jobin Yvon Inc.) (FIG. 6).

Row | Structure (SMILES) | Fluorescence maximum [1] [nm] | absorption maximum [2] [nm] | Fluorescence maximum ([2]; excitation 785 nm) [nm] | Ratio of fluorescence intensity (A/B) (albumin (BSA)) | Fluorescence maximum (albumin (BSA)) [nm] | Fluorescence intensity (A) (albumin (BSA)) | Fluorescence intensity (PBS)(B) (albumin (BSA)) | Fluorescence maximum [3] [nm] | Ratio of fluorescence intensity (A/B) [1] | Fluorescence intensity (A) [1] | Fluorescence intensity (PBS)(B) [1] | intensity of fluorescence at 20 mol % dye content as compared to 1 mol % (reduced to) ([2]; lactosome) | fluorescent dye content at which the intensity of fluorescence was highest ([2]; lactosome, excitation 785 nm) [mol %] | increase of fluorescent dye content by which fluorescence intensity per 1 μM dye is reduced to ½ ([2]; lactosome, until content reached 8 mol %) [mol %] | Fluorescence intensity (A) [3] | Fluorescence intensity (PBS)(B) [3] | Ratio of fluorescence intensity (A/B) [3] | intensity of fluorescence by adding SDS, BSA, or plasma [4] | fluorescent dye content at which the intensity of fluorescence in PBS was maximized ([4]; lactosome) [mol %] | increase of encapsulated fluorescent dye amount by which fluorescence intensity per certain amount of dye is reduced to ½ ([4]; lactosome, amphiphilic polymer concentration 1/15 mg/mL) [mol %]
1 | O=C(O)c1ccccc1C1=c2cc3c4c(c2Oc2c1cc1c5c2CCCN5CCC1)CCC[N+]=4CCC3 [Rhodamine 101] | 598 |  |  | 1.1 | 600 | 171710 | 163500 | 601 | 1.5 | 249130 | 162110 |  |  |  | 154280 | 163410 | 0.9 |  |  | 
2 | N#CC1=c2cc3c4c(c2Oc2c1cc1c5c2CCCN5CCC1)CCC[N+]=4CCC3 [Rhodamine 800] | 702 |  |  | 1.7 | 699 | 139250 | 82260 | 699 | 1.9 | 152580 | 80647 |  |  |  | 138170 | 82260 | 1.7 |  |  | 

More lines, main results first:

Row | Fluorescence maximum [1] [nm] | absorption maximum [2] [nm] | Fluorescence maximum ([2]; excitation 785 nm) [nm] | Ratio of fluorescence intensity (A/B) (albumin (BSA)) | Fluorescence maximum (albumin (BSA)) [nm] | Fluorescence intensity (A) (albumin (BSA)) | Fluorescence intensity (PBS)(B) (albumin (BSA)) | Fluorescence maximum [3] [nm] | Structure (SMILES) | Ratio of fluorescence intensity (A/B) [1] | Fluorescence intensity (A) [1] | Fluorescence intensity (PBS)(B) [1] | intensity of fluorescence at 20 mol % dye content as compared to 1 mol % (reduced to) ([2]; lactosome) | fluorescent dye content at which the intensity of fluorescence was highest ([2]; lactosome, excitation 785 nm) [mol %] | increase of fluorescent dye content by which fluorescence intensity per 1 μM dye is reduced to ½ ([2]; lactosome, until content reached 8 mol %) [mol %] | Fluorescence intensity (A) [3] | Fluorescence intensity (PBS)(B) [3] | Ratio of fluorescence intensity (A/B) [3] | intensity of fluorescence by adding SDS, BSA, or plasma [4] | fluorescent dye content at which the intensity of fluorescence in PBS was maximized ([4]; lactosome) [mol %] | increase of encapsulated fluorescent dye amount by which fluorescence intensity per certain amount of dye is reduced to ½ ([4]; lactosome, amphiphilic polymer concentration 1/15 mg/mL) [mol %]
3 | 852 | 831 | 836 | 156.3 | 837 | 92384 | 591 | 844 | CC1(C)C(/C=C/C2=C(Cl)C(=C/C=C3\N(CCCCCC(=O)O)c4ccc5ccccc5c4C3(C)C)/CCC2)=[N+](CCO)c2ccc3ccccc3c21.[I-] [IC7-1] | 204.5 | 141929 | 694 | about 1/120 | 1 | 0.78 | 199746 | 696 | 287.0 | increased with dependence on fluorescent dye content | 1 | 1.12
4 | 916 | 831 | 833 | 13.1 | 903 | 185345 | 14147 | 901 | CC1(C)C(/C=C/C2=C(Cl)C(=C/C=C3/C=CN(CCO)c4ccccc43)/CCC2)=[N+](CCCCCC(=O)O)c2ccc3ccccc3c21.[I-] [IC7-2] | 7.9 | 124942 | 15816 | about ⅛ |  |  | 241880 | 14224 | 17.0 | increased with dependence on fluorescent dye content | 2.5 | 
5 | 821 |  |  | 33.4 | 802 | 148650 | 4454 | 824 | CC1(C)C(/C=C/C=C/C=C/C=C2\N(CCCCS(=O)(=O)O)c3ccc4ccccc4c3C2(C)C)=[N+](CCCCS(=O)(=O)[O-])c2ccc3ccccc3c21 [ICG, indocyanine green] | 71.9 | 382900 | 5327 |  |  |  | 342590 | 5212 | 65.7 |  |  | 
